PubChem BioAssay AID463199 (Broad Institute, 2010)
Active and inactive are the calls of the source.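 Rule for the calls: active = AC50, the dose giving half-maximal effect, exceeds a fixed cutoff for a compound that rescues yeast growth under heat; inactive = the rest, inconclusive results apart.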

System: S. cerevisiae Burl-1 ts mutant growth, BacTiter-Glo, 38.5C 24 h
Assay: growth induction of Burl-1 ts yeast mutant, dose response, counter-screen for SUMOylation pathway inhibitor project, whole organism, S. cerevisiae, luminescence (AID 463199)

Question: For `O=c1cnc2ccccc2n1Cc1ccccc1C(F)(F)F`, which AC50 is on record?
Answer: > 42 µM (inactive)

Question: For `COc1ccc2c(c1)[C@H]1[C@H](CO2)[C@H](c2ccccc2)[C@]2(C)C(=O)Nc3ccc(Br)cc3C(=O)N12`, which AC50 is on record?
Answer: > 42 µM (inactive)

Question: For `Cn1cc(C(=O)N2CCCC(Nc3ccc(F)cc3)C2)c2ccccc21` (configuration not stated), which AC50 is on record?
Answer: > 42 µM (inactive)

Question: `Cc1cc(C)n(CCOC(=O)C2C(C=C(Cl)Cl)C2(C)C)n1` (configuration not stated) was tested. Which AC50 did it give?
Answer: > 42 µM (inactive)

Question: Which AC50 does the source give for `O=C(CCc1nc2sc3c(c2c(=O)[nH]1)CCCC3)N1CCN(c2ccccc2)CC1` here?
Answer: > 42 µM (inactive)

Question: Which AC50 does the source give for `CCC(C(=O)Nc1cccnc1)c1ccccc1` (configuration not stated) here?
Answer: > 42 µM (inactive)

Question: For `CCCCNC(=O)N1CCC(CCC(=O)N(C)Cc2ccccc2)CC1`, which AC50 is on record?
Answer: > 42 µM (inactive)

Question: `Nc1nc(-c2ccc(Cl)cc2)nc(-c2ccc(Cl)cc2)n1` was tested. Which AC50 did it give?
Answer: > 42 µM (inactive)

Question: `CCCCC1=CC2=CC(=O)C(C)(OC(=O)CC)C(=O)C2=CN1CCc1ccc(Br)cc1` (configuration not stated) was tested. Which AC50 did it give?
Answer: > 42 µM (inactive)

Question: Which AC50 does the source give for `c1ccc(CCCc2nc(-c3cccnc3)no2)cc1` here?
Answer: > 42 µM (inactive)

Question: `COC(=O)/C=C\C(=O)Nc1cccc([N+](=O)[O-])c1` was tested. Which AC50 did it give?
Answer: > 42 µM (inactive)

Question: For `CCCNCc1cc(OCC)c(OCC(N)=O)cc1Br`, which AC50 is on record?
Answer: > 42 µM (inactive)

Question: How did the AC50 turn out when `O=C(NCc1ccccc1)c1cccc(COc2ccc(Cl)cc2)c1` was run?
Answer: > 42 µM (inactive)

Question: For `Cc1onc(-c2ccccc2)c1C(=O)N/N=C/C=C/c1ccccc1`, which AC50 is on record?
Answer: > 42 µM (inactive)

Question: Which AC50 does the source give for `OC[C@@H](O)CCl` here?
Answer: > 42 µM (inactive)

Question: How did the AC50 turn out when `CCN(C(=O)COC(=O)c1cc([N+](=O)[O-])ccc1N1CCOCC1)C1CCCCC1` was run?
Answer: > 42 µM (inactive)

Question: With `Cc1noc(C)c1S(=O)(=O)N1CCCC(C(=O)NCC2CCCO2)C1` (configuration not stated) as the molecule, how does the AC50 read?
Answer: > 42 µM (inactive)

Question: Which AC50 does the source give for `C=CCN1C(=O)/C(=C2/Sc3ccc(OC)cc3N2C)SC1=Nc1ccccc1` here?
Answer: > 42 µM (inactive)

Question: For `COCC(C)n1c(-c2ccc3c(c2)NC(=O)CO3)csc1=Nc1ccc(OC(F)F)cc1` (configuration not stated), which AC50 is on record?
Answer: > 42 µM (inactive)

Question: `O=C(CCC(=O)OC(C(=O)c1ccccc1)c1ccccc1)Nc1ccccc1` (configuration not stated) was tested. Which AC50 did it give?
Answer: > 21 µM (inactive)

Question: `COC(=O)c1ccccc1N(C)S(C)(=O)=O` was tested. Which AC50 did it give?
Answer: > 42 µM (inactive)

Question: For `COc1ccc(C(=O)N2CCN(c3ccc(NC(=O)c4cccnc4)cc3)CC2)cc1`, which AC50 is on record?
Answer: > 42 µM (inactive)

Question: With `CC(C)[N+]1(C)[C@@H]2CC[C@@H]1CC(OC(=O)C(CO)c1ccccc1)C2` (some centres not stated) as the molecule, how does the AC50 read?
Answer: > 42 µM (inactive)

Question: For `Fc1cccc(Cl)c1CSc1nnc(CN2CCOCC2)n1-c1ccccc1`, which AC50 is on record?
Answer: > 42 µM (inactive)

Question: Which AC50 does the source give for `CC(NC(=O)c1cnc2n(c1=O)CCS2)c1ccccc1` (configuration not stated) here?
Answer: > 42 µM (inactive)

Question: Which AC50 does the source give for `CC(C)(C)NC(=O)C1Cc2ccccc2CN1S(=O)(=O)c1ccc(F)cc1` (configuration not stated) here?
Answer: > 42 µM (inactive)

Question: `CC1CC(C)(C)N(C(=O)CN2C(=O)CCC2=O)c2ccccc21` (configuration not stated) was tested. Which AC50 did it give?
Answer: > 42 µM (inactive)

Question: `CC1CCN(CCCCOc2cccc(Br)c2)CC1` was tested. Which AC50 did it give?
Answer: > 42 µM (inactive)

Question: With `O=C(Nc1ccc2c(c1)oc1ccccc12)C1CC1` as the molecule, how does the AC50 read?
Answer: > 42 µM (inactive)

Question: With `CCOC(=O)c1oc2c(c1C)C(=O)CCC2` as the molecule, how does the AC50 read?
Answer: > 42 µM (inactive)

Question: With `COc1cc(O)oc1C=Nc1ccc(C(=O)O)cc1` as the molecule, how does the AC50 read?
Answer: > 42 µM (inactive)

Question: With `CC(=O)c1c(N)[nH]c(-c2ccccc2)nc1=S` as the molecule, how does the AC50 read?
Answer: > 42 µM (inactive)

Question: How did the AC50 turn out when `Cc1c(C(=O)NC(C)c2ccc(-n3ccnc3)cc2)cccc1[N+](=O)[O-]` (configuration not stated) was run?
Answer: > 42 µM (inactive)

Question: Which AC50 does the source give for `COc1ccc(CN2CC(=O)N(c3ccccc3C)C2=S)cc1OC` here?
Answer: > 42 µM (inactive)

Question: Which AC50 does the source give for `Oc1ccccc1-c1cc(C(F)(F)C(F)F)[nH]n1` here?
Answer: > 42 µM (inactive)

Question: For `O=C(CN1CCN(Cc2ccc(Cl)cc2)CC1)N/N=C/c1ccncc1`, which AC50 is on record?
Answer: > 42 µM (inactive)

Question: Which AC50 does the source give for `COc1cccc(C(=O)N2CCN(S(=O)(=O)Cc3ccccc3)CC2)c1OC` here?
Answer: > 42 µM (inactive)

Question: How did the AC50 turn out when `O=c1cnc2cc([N+](=O)[O-])ccc2[nH]1` was run?
Answer: > 42 µM (inactive)

Question: With `COC(=O)CN(C(=S)Nc1ccc(F)cc1)C1CC(=O)N(c2ccccc2)C1=O` (configuration not stated) as the molecule, how does the AC50 read?
Answer: > 42 µM (inactive)

Question: With `COc1ccccc1CNC(=O)CCC(=O)Nc1nnc(C(C)C)s1` as the molecule, how does the AC50 read?
Answer: > 42 µM (inactive)

Question: `CCC(C)NCCOc1ccccc1C` (configuration not stated) was tested. Which AC50 did it give?
Answer: > 42 µM (inactive)

Question: For `COc1ccccc1-c1nc2ccccc2nc1-c1ccccc1OC`, which AC50 is on record?
Answer: > 42 µM (inactive)

Question: Which AC50 does the source give for `O=C(Nc1nc(-c2ccccn2)cs1)c1ccc2c(c1)OCCO2` here?
Answer: > 42 µM (inactive)

Question: How did the AC50 turn out when `Cc1ccc(SCCNC(=O)CN2C(=O)c3ccccc3S2(=O)=O)cc1` was run?
Answer: > 42 µM (inactive)

Question: With `Cc1ccccc1Nc1c([N+](=O)[O-])ccc2c1=NC1(CCCCC1)N=2` as the molecule, how does the AC50 read?
Answer: > 42 µM (inactive)

Question: Which AC50 does the source give for `Cc1[nH]c2ccccc2c1/C=N/NC(=O)c1cccc(Br)c1` here?
Answer: > 42 µM (inactive)

Question: Which AC50 does the source give for `O=C(O)CN(c1ccccn1)S(=O)(=O)c1ccc(Cl)cc1` here?
Answer: > 42 µM (inactive)

Question: Which AC50 does the source give for `Cc1onc(-c2ccccc2Cl)c1C(=O)N1CCc2ccccc2C1` here?
Answer: > 42 µM (inactive)

Question: How did the AC50 turn out when `CCCOC(=O)c1c(NC(=O)/C=C/c2cnn(C)c2C)sc(C(=O)OC)c1C` was run?
Answer: > 42 µM (inactive)

Question: How did the AC50 turn out when `CCNC(=O)NC1c2ccccc2CSc2ccccc21` (configuration not stated) was run?
Answer: > 42 µM (inactive)

Question: For `O=C(Nc1nccs1)c1ccc(S(=O)(=O)c2ccccc2)cc1`, which AC50 is on record?
Answer: > 42 µM (inactive)

Question: How did the AC50 turn out when `CC(C)c1ccc2c(c1)CCC1C(C)(CN)CCCC21C` (configuration not stated) was run?
Answer: > 42 µM (inactive)
